Reference: patent US10927096B2, “Ester substituted ion channel blockers and methods for use” (Nocion Therapeutics, Inc., priority 2019, dated 2021)

What was measured:
[1] = molecular target: T1, NaV1.7 (Homo sapiens, UniProt Q15858); assay: Whole cell patch clamp, internal block of NaV1.7 current; assay type: cell-based; conditions: % inhibition at 1 μM test concentration, compound in internal solution, manual whole cell patch clamp
T1 construct: expressed in transfected cells; host or cells: HEK293, tetracycline-inducible
T1 sequence (Q15858 whole entry): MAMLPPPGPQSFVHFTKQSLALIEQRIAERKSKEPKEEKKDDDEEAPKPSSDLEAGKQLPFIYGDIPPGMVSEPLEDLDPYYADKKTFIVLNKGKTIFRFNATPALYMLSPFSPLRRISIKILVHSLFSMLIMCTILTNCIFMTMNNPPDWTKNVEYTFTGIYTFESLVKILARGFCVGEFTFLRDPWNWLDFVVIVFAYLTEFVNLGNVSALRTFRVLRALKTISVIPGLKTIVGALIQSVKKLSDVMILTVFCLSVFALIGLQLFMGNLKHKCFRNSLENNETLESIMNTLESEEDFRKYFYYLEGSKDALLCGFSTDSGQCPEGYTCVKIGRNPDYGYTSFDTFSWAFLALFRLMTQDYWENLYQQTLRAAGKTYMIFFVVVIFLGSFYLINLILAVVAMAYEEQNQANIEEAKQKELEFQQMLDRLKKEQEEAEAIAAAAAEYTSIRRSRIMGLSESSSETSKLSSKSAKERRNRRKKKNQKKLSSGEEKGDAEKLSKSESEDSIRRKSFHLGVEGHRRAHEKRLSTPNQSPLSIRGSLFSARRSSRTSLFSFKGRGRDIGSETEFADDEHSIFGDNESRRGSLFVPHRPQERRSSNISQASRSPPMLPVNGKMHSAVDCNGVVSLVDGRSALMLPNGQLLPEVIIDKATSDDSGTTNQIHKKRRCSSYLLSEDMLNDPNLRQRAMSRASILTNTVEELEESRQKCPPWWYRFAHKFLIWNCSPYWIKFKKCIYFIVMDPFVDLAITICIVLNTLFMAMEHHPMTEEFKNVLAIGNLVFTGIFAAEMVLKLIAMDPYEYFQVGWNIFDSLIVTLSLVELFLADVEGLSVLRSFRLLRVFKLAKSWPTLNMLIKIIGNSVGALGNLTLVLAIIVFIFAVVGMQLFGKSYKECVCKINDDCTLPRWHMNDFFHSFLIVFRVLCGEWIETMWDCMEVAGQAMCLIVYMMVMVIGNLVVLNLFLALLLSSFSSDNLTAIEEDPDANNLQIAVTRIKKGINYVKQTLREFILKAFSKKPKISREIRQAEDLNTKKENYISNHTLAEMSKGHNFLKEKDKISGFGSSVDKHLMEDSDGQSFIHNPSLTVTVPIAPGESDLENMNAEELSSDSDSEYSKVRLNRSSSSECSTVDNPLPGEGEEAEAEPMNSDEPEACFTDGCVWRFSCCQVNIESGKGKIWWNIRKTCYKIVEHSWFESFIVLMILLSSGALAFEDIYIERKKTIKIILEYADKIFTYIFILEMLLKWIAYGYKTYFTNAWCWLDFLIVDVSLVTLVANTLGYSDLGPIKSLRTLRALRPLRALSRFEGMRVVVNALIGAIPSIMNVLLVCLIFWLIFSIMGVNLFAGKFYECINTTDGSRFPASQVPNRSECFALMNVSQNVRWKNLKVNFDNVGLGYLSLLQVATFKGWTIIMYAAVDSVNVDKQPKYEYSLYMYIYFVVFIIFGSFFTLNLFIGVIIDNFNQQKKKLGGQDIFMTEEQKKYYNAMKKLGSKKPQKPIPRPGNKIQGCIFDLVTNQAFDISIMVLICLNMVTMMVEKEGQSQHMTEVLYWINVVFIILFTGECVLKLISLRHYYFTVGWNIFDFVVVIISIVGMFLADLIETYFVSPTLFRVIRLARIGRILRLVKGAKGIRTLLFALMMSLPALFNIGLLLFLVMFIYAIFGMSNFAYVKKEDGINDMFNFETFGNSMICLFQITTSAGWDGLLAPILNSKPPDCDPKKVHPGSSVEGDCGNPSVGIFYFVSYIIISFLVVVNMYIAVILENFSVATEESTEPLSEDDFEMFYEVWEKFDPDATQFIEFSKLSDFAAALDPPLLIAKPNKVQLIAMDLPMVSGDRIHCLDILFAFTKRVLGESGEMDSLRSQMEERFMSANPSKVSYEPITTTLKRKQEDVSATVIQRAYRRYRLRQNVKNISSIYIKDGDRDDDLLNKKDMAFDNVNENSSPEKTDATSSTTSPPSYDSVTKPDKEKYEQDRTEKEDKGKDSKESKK
How it was run: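 Tetracycline-induced cells recorded 18-24 h post-induction at room temperature, compound dissolved in CsCl internal solution (pH 7.2), Ringer bath pH 7.4. From −100 mV holding, 10 ms steps to −20 mV; baseline at 30 s intervals, then four 30 s trains at 5 Hz. Fraction current remaining = last-train peak/baseline, versus control-internal cells.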

[2] = PAMPA membrane permeability assay; assay type: physicochemical; conditions: pH 7.4 buffer, GIT lipid, 4 hours incubation
How it was run: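 Passive diffusion across a GIT-lipid-painted artificial membrane, with compounds at 50 uM in pH 7.4 buffer in the donor well and 4 h incubation. Donor, acceptor and reference solutions were quantified by UV spectra, and permeability coefficients (10^−6 cm/s) were derived from AUCs. Results are binned as + (<0.1), ++ (0.1-2.0), +++ (2.0-10.0), ++++ (>10.0).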

SMILES | NaV1.7 Intracellular Inhibition [1] | PAMPA (10^−6 cm/s) [2] | inhibition at 1 µM ([1]; read-out: NaV1.7 Intracellular Inhibition)
CC[N+]1(CC(=O)Nc2c(C)cccc2C(=O)OC)CCCC(C(=O)N2CCCCC2)C1.[I-] (centres unmarked) [Compound 45] | ++ (70-30%) | + (<0.1 10^−6 cm/s) | 
CC[N+]1(CC(=O)Nc2c(C)cccc2C(=O)OC)CCCC(C(=O)NC)C1.[I-] (centres unmarked) [Compound 46] | + (<30%) | + (<0.1 10^−6 cm/s) | 
CC[N+]1(CC(=O)Nc2c(C)cccc2C(=O)OC)CCCC(C(N)=O)C1.[I-] (centres unmarked) [Compound 55] | +++ (90-70%) | + (<0.1 10^−6 cm/s) | 
CC[N+]1(CC(=O)Nc2c(C)cccc2C(=O)OC)CCCC(C(=O)NC2CCCCC2)C1.[I-] (centres unmarked) [Compound 56] | ++ (70-30%) | + (<0.1 10^−6 cm/s) | 
CCC(C(=O)Nc1c(C)cccc1C(=O)OC)[N+]1(Cc2ccccc2)CCCCC1 (centres unmarked) [Compound 57] |  | + (<0.1 10^−6 cm/s) | 30 to 70%
CCc1cccc(C[N+]2(C(CC)C(=O)Nc3c(C)cccc3C(=O)OC)CCCCC2)c1.O=C[O-] (centres unmarked) [Compound 58] | +++ (90-70%) | + (<0.1 10^−6 cm/s) | 
COC(=O)c1cccc(C)c1NC(=O)C[N+]1(CC(=O)N(C)C)CCCC(c2ccccc2)C1.O=C([O-])C(F)(F)F (centres unmarked) [Compound 60] | ++ (70-30%) | + (<0.1 10^−6 cm/s) | 
CCOC(=O)C[N+]1(CC(=O)Nc2c(C)cccc2C(=O)OC)CCCC(c2ccccc2)C1.O=C([O-])C(F)(F)F (centres unmarked) [Compound 63] | +++ (90-70%) | +++ (2.0-10.010^−6 cm/s) | 
COC(=O)c1cccc(C)c1NC(=O)C[n+]1cccn1C1CCCCC1.[Br-] [Compound 69] | ++ (70-30%) | ++ (0.1-2.0 10^−6 cm/s) | 

Results, then the molecule that gave them:

NaV1.7 Intracellular Inhibition [1] | PAMPA (10^−6 cm/s) [2] | inhibition at 1 µM ([1]; read-out: NaV1.7 Intracellular Inhibition) | SMILES
+++ (90-70%) | + (<0.1 10^−6 cm/s) |  | COC(=O)c1cccc(C)c1NC(=O)C[n+]1cccc(-c2ccccc2)c1.[Br-] [Compound 66]
+++ (90-70%) | +++ (2.0-10.010^−6 cm/s) |  | CCOC(=O)c1cccc(C)c1NC(=O)C[n+]1cccc(-c2ccccc2)c1 [Compound 67]
++ (70-30%) | + (<0.1 10^−6 cm/s) |  | Cc1cccc(C(=O)OC(C)(C)C)c1NC(=O)C[n+]1cccc(-c2ccccc2)c1.[Br-] [Compound 71]
++ (70-30%) | + (<0.1 10^−6 cm/s) |  | Cc1cccc(C(=O)OC(C)(C)C)c1NC(=O)C[n+]1cccn1C1CCCCC1.[Br-] [Compound 72]
